Test results: patent US8729031B2, “Compounds” (priority 2009, dated 2014)
Converted amounts (≈) assume the structure as drawn. Like-named read-outs stand apart in the source and are kept apart here.

Tests used:
Assay type in all cases: cell-based
[1] = system: Streptococcus pneumoniae; assay: microbe, parasite or virus in culture; details: Streptococcus pneumoniae, read-out: MIC
Description: (§1) Susceptibility testing with the exception of Streptococcus pneumoniae was performed by two-fold serial dilutions in Mueller Hinton Broth supplemented with 50 μg/mL Ca^2+. Susceptibility testing of S. pneumoniae was performed by two-fold serial dilutions in Brain-Heart-Infusion Broth supplemented with 50 μg/mL Ca^2+.

[2] = system: S. aureus R33 (MRSA); details: for MIC against Stapholococcus aureus strain R33: strain R33, text b20
Description: as §1

[3] = system: S. aureus SH1000; details: for MIC against Stapholococcus aureus strain SH1000: strain SH1000, text b20
Description: as §1

| Compound | MIC in μg/mL against strain S. aureus R33 (MRSA) [2] | MIC in μg/mL against strain S. aureus SH1000 [3] | further results |
| --- | --- | --- | --- |
| CC[C@H]1OC(=O)[C@H](C)[C@@H](O[C@H]2C[C@@](C)(OC)[C@@H](O)[C@H](C)O2)[C@H](C)[C@@H](O[C@@H]2O[C@H](C)C[C@H](N(C)C)[C@H]2O)[C@](C)(O)C[C@@H](C)C(=O)[C@H](C)[C@@H](O)[C@]1(C)O [Erythromycin, reference compound] |  |  | MIC ([1]; isolate QB37301, penicillin Resistant): > 32 µg/mL; MIC ([1]; isolate QB37302, penicillin Resistant): > 32 µg/mL; MIC ([1]; isolate QB37303, penicillin Intermediate): ≤ 0.015 µg/mL; MIC ([1]; isolate QB37304, penicillin Susceptible): 8 µg/mL (≈ 10.9 µM); MIC ([1]; isolate QB37306, penicillin Susceptible): ≤ 0.015 µg/mL; MIC ([1]; isolate QB37307, penicillin Intermediate): ≤ 0.015 µg/mL; MIC ([1]; isolate QB37308, penicillin Susceptible): ≤ 0.015 µg/mL; MIC ([1]; isolate QB37309, penicillin Resistant): 2 µg/mL (≈ 2.73 µM); MIC ([1]; isolate QB37310, penicillin Resistant): > 32 µg/mL; MIC ([1]; isolate QB37311, penicillin Resistant): > 32 µg/mL; MIC ([1]; isolate QB37312, penicillin Intermediate): > 32 µg/mL; MIC ([1]; isolate QB37313, penicillin Susceptible): > 32 µg/mL; MIC ([1]; isolate QB37314, penicillin Resistant): > 32 µg/mL; MIC ([1]; isolate QB37315, penicillin Susceptible): ≤ 0.015 µg/mL; MIC ([1]; isolate QB37316, penicillin Susceptible): ≤ 0.015 µg/mL; MIC ([1]; isolate QB37317, penicillin Susceptible): ≤ 0.015 µg/mL; MIC ([1]; isolate QB37318, penicillin Resistant): 4 µg/mL (≈ 5.45 µM); MIC ([1]; isolate QB37319, penicillin Resistant): > 32 µg/mL |
| CC[C@H](C)[C@@H]1NC(=O)[C@@H]2NC(=O)[C@H](CC(C)C)NC(=O)[C@H](NC(=O)[C@@H]3CSC[C@@H](N)C(=O)N[C@@H](CO)C(=O)NCC(=O)N[C@@H](Cc4c[nH]c5ccccc45)C(=O)N[C@@H](C(C)C)C(=O)N3)[C@H](C)SC[C@H](NC(=O)[C@H](CCC(=O)O)NC1=O)C(=O)NCC(=O)N[C@H]1C(=O)N[C@@H](CC(C)C)C(=O)N[C@@H](C(C)C)C(=O)N[C@@H](CS[C@H]2C)C(=O)N[C@@H](C)C(=O)N[C@H](C(=O)N2CCN(Cc3ccc(Br)cc3F)CC2)CS[C@H]1C [Example 7, Deoxyactagardine B [4-(2′-fluoro-4′-bromobenzyl)piperazine]monocarboxamide] | 8 µg/mL (≈ 3.76 µM) | 8 µg/mL (≈ 3.76 µM) |  |
| CC[C@H](C)[C@@H]1NC(=O)[C@@H]2NC(=O)[C@H](CC(C)C)NC(=O)[C@H](NC(=O)[C@@H]3CSC[C@@H](N)C(=O)N[C@@H](CO)C(=O)NCC(=O)N[C@@H](Cc4c[nH]c5ccccc45)C(=O)N[C@@H](C(C)C)C(=O)N3)[C@H](C)SC[C@H](NC(=O)[C@H](CCC(=O)O)NC1=O)C(=O)NCC(=O)N[C@H]1C(=O)N[C@@H](CC(C)C)C(=O)N[C@@H](C(C)C)C(=O)N[C@@H](CS[C@H]2C)C(=O)N[C@@H](C)C(=O)N[C@H](C(=O)NCc2ccc(Br)cc2)CS[C@H]1C [Example 9, Deoxyactagardine B [4-bromobenzylamine]monocarboxamide] |  | 8 µg/mL (≈ 3.92 µM) |  |
| CC[C@H](C)[C@@H]1NC(=O)[C@@H]2NC(=O)[C@H](CC(C)C)NC(=O)[C@H](NC(=O)[C@@H]3CSC[C@@H](N)C(=O)N[C@@H](CO)C(=O)NCC(=O)N[C@@H](Cc4c[nH]c5ccccc45)C(=O)N[C@@H](C(C)C)C(=O)N3)[C@H](C)SC[C@H](NC(=O)[C@H](CCC(=O)O)NC1=O)C(=O)NCC(=O)N[C@H]1C(=O)N[C@@H](CC(C)C)C(=O)N[C@@H](C(C)C)C(=O)N[C@@H](CS[C@H]2C)C(=O)N[C@@H](C)C(=O)N[C@H](C(=O)N2CCN(c3ccc(Cl)c(Cl)c3)CC2)CS[C@H]1C [Example 10, Deoxyactagardine B [4-(3′,4′-dichlorophenyl)piperazine]monocarboxamide] |  | 8 µg/mL (≈ 3.83 µM) |  |
| CC[C@H](C)[C@@H]1NC(=O)[C@@H]2NC(=O)[C@H](CC(C)C)NC(=O)[C@H](NC(=O)[C@@H]3CSC[C@@H](N)C(=O)N[C@@H](CO)C(=O)NCC(=O)N[C@@H](Cc4c[nH]c5ccccc45)C(=O)N[C@@H](C(C)C)C(=O)N3)[C@H](C)SC[C@H](NC(=O)[C@H](CCC(=O)O)NC1=O)C(=O)NCC(=O)N[C@H]1C(=O)N[C@@H](CC(C)C)C(=O)N[C@@H](C(C)C)C(=O)N[C@@H](CS[C@H]2C)C(=O)N[C@@H](C)C(=O)N[C@H](C(=O)NCc2ccc(F)cc2F)CS[C@H]1C [Example 15, Deoxyactagardine B (2,4-difluorobenzylamine)monocarboxamide] | 8 µg/mL (≈ 4 µM) | 8 µg/mL (≈ 4 µM) |  |
| CC[C@H](C)[C@@H]1NC(=O)[C@@H]2NC(=O)[C@H](CC(C)C)NC(=O)[C@H](NC(=O)[C@@H]3CSC[C@@H](N)C(=O)N[C@@H](CO)C(=O)NCC(=O)N[C@@H](Cc4c[nH]c5ccccc45)C(=O)N[C@@H](C(C)C)C(=O)N3)[C@H](C)SC[C@H](NC(=O)[C@H](CCC(=O)O)NC1=O)C(=O)NCC(=O)N[C@H]1C(=O)N[C@@H](CC(C)C)C(=O)N[C@@H](C(C)C)C(=O)N[C@@H](CS[C@H]2C)C(=O)N[C@@H](C)C(=O)N[C@H](C(=O)NCCCNCCCNCc2cc(Cl)cc(Cl)c2)CS[C@H]1C [Example 20, Deoxyactagardine B [3-(3′-(3″,5″-dichlorobenzylamino)propylamino)propylamine]monocarboxamide] | 8 µg/mL (≈ 3.73 µM) | 8 µg/mL (≈ 3.73 µM) |  |
| CC[C@H](C)[C@@H]1NC(=O)[C@@H]2NC(=O)[C@H](CC(C)C)NC(=O)[C@H](NC(=O)[C@@H]3CSC[C@@H](N)C(=O)N[C@@H](CO)C(=O)NCC(=O)N[C@@H](Cc4c[nH]c5ccccc45)C(=O)N[C@@H](C(C)C)C(=O)N3)[C@H](C)SC[C@H](NC(=O)[C@H](CCC(=O)O)NC1=O)C(=O)NCC(=O)N[C@H]1C(=O)N[C@@H](CC(C)C)C(=O)N[C@@H](C(C)C)C(=O)N[C@@H](CS[C@H]2C)C(=O)N[C@@H](C)C(=O)N[C@H](C(=O)NCCCCCCNS(=O)(=O)c2c(Cl)cc(Cl)cc2Cl)CS[C@H]1C [Example 27, Deoxyactagardine B [6-(2′,4′,6′-trichlorobenzenesulfonamido)hexylamine]monocarboxamide] | 8 µg/mL (≈ 3.61 µM) | 8 µg/mL (≈ 3.61 µM) |  |
| CC[C@H](C)[C@@H]1NC(=O)[C@@H]2NC(=O)[C@H](CC(C)C)NC(=O)[C@H](NC(=O)[C@@H]3CSC[C@@H](N)C(=O)N[C@@H](CO)C(=O)NCC(=O)N[C@@H](Cc4c[nH]c5ccccc45)C(=O)N[C@@H](C(C)C)C(=O)N3)[C@H](C)SC[C@H](NC(=O)[C@H](CCC(=O)O)NC1=O)C(=O)NCC(=O)N[C@H]1C(=O)N[C@@H](CC(C)C)C(=O)N[C@@H](C(C)C)C(=O)N[C@@H](CS[C@H]2C)C(=O)N[C@@H](C)C(=O)N[C@H](C(=O)NCCCCCCNCc2cc(Cl)cc(Cl)c2)CS[C@H]1C [Example 30, Deoxyactagardine B [6-(3′,5′-dichlorobenzylamino)-hexylamine]monocarboxamide] | 8 µg/mL (≈ 3.75 µM) | 4 µg/mL (≈ 1.88 µM) |  |
| Actagardine (3,5-dichlorobenzylamine)monocarboxamide [Example 2] | ≦4 μg/mL | ≦4 μg/mL |  |
| Deoxyactagardine B 19-[4-(4′-chlorophenyl)piperazine]monocarboxamide [Example 4] | ≦4 μg/mL | ≦4 μg/mL |  |
| Deoxyactagardine B (2,5-dichlorobenzylamine)monocarboxamide [Example 21] | ≦4 μg/mL | ≦4 μg/mL |  |
| Deoxyactagardine B (2-chlorobenzylamine)monocarboxamide [Example 23] | ≦4 μg/mL | ≦4 μg/mL |  |
| Deoxyactagardine B (3,4-dichlorobenzylamine)monocarboxamide [Example 22] | ≦4 μg/mL | ≦4 μg/mL |  |
| Deoxyactagardine B (3-chlorobenzylamine)monocarboxamide [Example 24] | ≦4 μg/mL | ≦4 μg/mL |  |
| Deoxyactagardine B (4-chlorobenzylamine)monocarboxamide [Example 25] | ≦4 μg/mL | ≦4 μg/mL |  |
| Deoxyactagardine B [3-(2′-aminomethyl-4′-(2″,4″-dichlorophenyl)-furanyl)propylamine]monocarboxamide [Example 32] | ≦4 μg/mL | ≦4 μg/mL |  |
| Deoxyactagardine B [3-(2′-aminomethyl-4′-(2″-nitro-4″-chlorophenyl)-furanyl)propylamine]monocarboxamide [Example 33] | ≦4 μg/mL | ≦4 μg/mL |  |
| deoxyactagardine B N-[1-(1-methyl-4-piperidinyl)piperazine]monocarboxamide [reference compound] |  |  | MIC against Stapholococcus aureus strain R33 [2]: approximately 64 μL/mL; MIC against Stapholococcus aureus strain SH1000 [3]: approximately 64 μL/mL |
| deoxyactagardine B N-[1-(3-dimethylamino propyl)piperazine]monocarboxamide [reference compound] |  |  | MIC against Stapholococcus aureus strain R33 [2]: approximately 64 μL/mL; MIC against Stapholococcus aureus strain SH1000 [3]: approximately 64 μL/mL |
